Experimental data as given in patent US11717556B2, “Stemness-suppressing composition comprising OCT4 function-inhibiting peptide” (NATIONAL CANCER CENTER, priority 2018, dated 2023).
Values belong to the compound of their own block, whether it stands above or below them. Where no end group is shown, it is not given here.

Columns and labels:
[1] = test system: OCT4 phosphorylation in NCCIT cell line; assay: Western blotting of OCT4 phosphorylation in NCCIT cell line transformed with peptide vectors; type: cell-based, human; conditions: vector-expressed peptide, cultured 36 to 48 hours, western blotting quantified with ImageJ (FIG. 16)
From the text: In order to confirm the link between the phosphorylation of an octamer-binding transcription factor 4 (OCT4) protein and stemness, first, a cell line expressing OCT4 substituted with 236D as an OCT4 S236 phosphorylation mimetic mutant was constructed. For construction of cells, a lentivirus expressing short hairpin RNA ([…], SEQ ID NO: 1) and a puromycin resistance gene in a doxycycline-dependent manner was constructed, and primarily, NCCIT(ATCC® CRL-2073™) and NTERA-2 (ATCC® CRL-1973™), which are cancer stem cell lines, were transfected with the lentivirus. Then, a plasmid recombinant for expressing OCT4 wild type and blasticidine resistance genes, or OCT4 substituted with 236D which is a phosphorylation mimetic of OCT4 and blasticidine resistance genes in a pCAG-Flag-B/S vector was secondarily transfected into the transfected cell line using Lipofectamine 3000 (Thermo Fisher). […]
After an NCCIT cell line was transformed by inserting the vector constructed by the method in Example 5 into the NCCIT cell line using Lipofectamine 3000, and then cultured for 36 hours to 48 hours, western blotting was performed in the same manner as in Example 2.1. The quantification of western blotting was analyzed using ImageJ. […]

[2] = test system: OCT4 S236 phosphorylation in NCCIT and NTERA-2 cell lines; assay: Okadaic acid (PP1 inhibitor) treatment, western blotting and immunofluorescence staining of OCT4 S236 phosphorylation; type: cell-based, human; conditions: NCCIT and NTERA-2 treated with okadaic acid; western blotting and immunofluorescence (FIGS. 10, 11)
[3] = test system: OCT4 S236 phosphorylation in cell lines; assay: Immunofluorescence staining of OCT4 phosphorylation after cell permeable peptide treatment; type: cell-based; conditions: cell permeable peptide 10 uM in cell culture solution, 2 days or more; immunofluorescence staining (FIG. 21)
PP1 protein = assay: Fluorescence polarization binding of FITC-bound peptides to purified PP1 protein
Description: Peptides in which FITC was bound to Helix-1, Helix-2, and Helix-3 in Example 4 were synthesized.
The peptides were uniformly aliquoted at a final concentration of 20 nM into a fluorescence polarization reaction buffer solution (10 mM HEPES pH7.5, 50 mM NaCl, 1 mM DTT, 1 mM EDTA, and 0.0025% Tween 20), a purified PP1 protein was added thereto, and then the resulting mixture was reacted for 30 minutes, and the results of measuring fluorescence polarization using TECAN Infinite F200 Pro are illustrated in FIG. 19.
The binding powers of Helix 3-1 (SEQ ID NO: 14), Helix 3-2 (SEQ ID NO: 15), Helix 3-3 (SEQ ID NO: 13), and Helix 3 were compared by narrowing the sequence involved in binding to PP1 in the Helix-3 sequence (SEQ ID NO: 11) consisting of 19 amino acids.

Compound: Helix 1: Amino acid sequence NRVRGNLENL; OCT4 function-inhibiting peptide (also: FITC label (site not given here))
- phosphorylation of OCT4 [1]: the highest

Compound: C=C1[C@@H](O)[C@@H]2O[C@]3(CC[C@H](/C=C/[C@@H](C)[C@@H]4CC(C)=C[C@@]5(O[C@H](C[C@@](C)(O)C(=O)O)CC[C@H]5O)O4)O3)CC[C@H]2O[C@@H]1[C@@H](O)C[C@H](C)[C@H]1O[C@@]2(CCCCO2)CC[C@H]1C [okadaic acid]
- phosphorylation of OCT4 [2]: the phosphorylation of OCT4 was increased

Compound: 11R-GGG-VVRVWFCNRRQK: Cell permeable peptide to which the sequence of Helix-3-3 was linked: RRRRRRRRRRRGGGVVRVWFCNRRQK (Cell penetrating peptide CPP H3-3)
- phosphorylation of OCT4 [3]: increase in phosphorylation of OCT4

Compound: Helix 3-3: Amino acid sequence VVRVWFCNRRQK; consisting of 12 amino acids (Helix 3-3)
- binding power to PP1 compared with Helix-3 (PP1 protein; FITC-bound peptides, fluorescence polarization (FIG. 20)): the same binding power as that of Helix-3

Compound: Helix 1-3: Amino acid sequence NRVRGNLENLFLQCPKPTLQQISHIAQQLGLEKDVVRVWFCNRRQKGKRS; OCT4 function-inhibiting peptide, expressed from pCAG-F-puro vector (Helix 1-3)
- phosphorylation of OCT4 [1]: the highest

- binding to PP1 (fluorescence polarization values) (PP1 protein; FITC-bound peptide 20 nM, purified PP1 protein added, 30 minutes (FIG. 19)): bound
Compound: Helix 3: Amino acid sequence KDVVRVWFCNRRQKGKRSS; OCT4 function-inhibiting peptide consisting of 19 amino acids (Helix 3)
